The values that follow come from patent US20100197657A1, “2-ARYL OR HETEROARYL INDOLE DERIVATIVES” (priority 2007, published 2010).

One test addresses T1, human ASIC3 (Homo sapiens, UniProt Q9UHC3).
T1 construct: expressed in transfected cells; host or cells: HEK293
T1 sequence (Q9UHC3 1-531): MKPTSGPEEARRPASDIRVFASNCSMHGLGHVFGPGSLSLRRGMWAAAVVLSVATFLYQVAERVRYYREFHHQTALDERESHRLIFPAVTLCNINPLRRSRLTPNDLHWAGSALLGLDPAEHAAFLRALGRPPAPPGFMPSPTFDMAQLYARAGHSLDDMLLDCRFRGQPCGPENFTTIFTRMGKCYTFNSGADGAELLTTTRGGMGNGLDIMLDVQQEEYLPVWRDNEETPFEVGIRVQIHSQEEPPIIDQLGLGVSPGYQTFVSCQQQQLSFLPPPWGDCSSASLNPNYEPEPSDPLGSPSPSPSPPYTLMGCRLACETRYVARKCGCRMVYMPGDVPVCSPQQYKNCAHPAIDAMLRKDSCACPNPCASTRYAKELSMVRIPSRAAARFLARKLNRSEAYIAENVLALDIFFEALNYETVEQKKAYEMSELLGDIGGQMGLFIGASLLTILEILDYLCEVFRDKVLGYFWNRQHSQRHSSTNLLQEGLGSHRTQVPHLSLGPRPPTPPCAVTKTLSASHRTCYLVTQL
The test can be described thus: In vitro assay for ASIC activity, whole-cell patch clamp, hASIC3 cell line. The format is cell-based. The following applies: for inhibition at 10 µM: percent inhibition vs. baseline current, read-out: levels of inhibition of acid-evoked ASIC current; for block of inward current evoked by pH5.5 in the hASIC3 cell line: pre-application of 10 μM; for inhibition of human ASIC3 current with increasing concentrations (FIG. 1): increasing concentrations of compound; for inhibition of inward current evoked by pH5.5 in the hASIC3 cell line: pre-application of 300 nM. On the procedure:
(§1) Cell Preparation: Human embryonic kidney cells (HEK293) stably expressing the human ASIC ion channel, are grown to 70-90% confluence in T75 cell culture flasks. Cells are lifted by removing the growth media and incubating with 3 ml of warmed (37° C.) 50/50 Trypsin/Dulbecco's Solution (GIBCO, USA) for 4-6 minutes. 7 ml of pH7.4_HBS (see Solutions and Drugs) is then added to block Trypsin activity. The cell suspension is placed into a 10 ml centrifuge tube and centrifuged for 1 minute @ 150×G. After centrifugation, the supernatant is aspirated and the cell pellet is re-suspended in 2-5 ml of pH7.4_HBS for a final cell density of ˜0.6×10^6 cells/ml. For whole-cell patch clamp, approximately 1000 cells are placed in a recording chamber containing standard bath solution for electrophysiological recording.
Solutions and Drugs: The intracellular solution contains (mM): 119 K-gluconate, 15 KCl, 3.2 MgCl2, 5 EGTA, 5 HEPES, 5 K2ATP, pH 7.3. The standard bath solution (pH7.4_HBS) contains (mM): 150 NaCl, 5 KCl, 2 CaCl2, 1 MgCl2, 10 HEPES, 12 Dextrose, pH 7.4. The acid-activation bath solution (pH5.5_MBS) contains (mM): 150 NaCl, 5 KCl, 2 CaCl2, 1 MgCl2, 10 MES, 12 Dextrose, pH 5.5. Test compounds were prepared as 2 or 10 mM stock solutions in DMSO and diluted in either pH7.4_HBS or pH5.5_MBS to final concentration.
Electrophysiological recording: Patch clamp recording pipettes were pulled from borosilicate glass and typically had 2-4 MOhm resistances. Whole cell currents were recorded with a patch clamp amplifier (Multiclamp 700B, Axon Instruments Inc). Holding and test potential was −60 mV. Control and compound solutions perfused the vicinity of the cell with flow controlled by computer-operated solenoid valves. 10-90% solution exchange typically took <20 ms. After establishment of whole cell configuration, cells were perfused with pH7.4_HBS. Baseline ASIC current was determined by application of pH5.5_MBS at two minute intervals. After a stable ASIC current was determined, inhibition of acid evoked current was determined by multiple applications of increasing concentrations (3-fold dilution) of compound. Inhibition of current was expressed as percent inhibition vs. baseline current. A minimum of three independent determinations at each concentration of compound was used for each data point. IC50s were determined using the Hill Equation.
(Patch clamp records ionic current or voltage across a cell membrane.)

A further test has as its system ASIC. The conditions noted are these: cited from earlier work; for inhibition of ASIC current: Psalmotoxin-1 selective for ASIC1, APETx2 selective for ASIC3.
For the next test, the target named is T2, human ASIC1 (Homo sapiens, UniProt P78348).
T2 construct: expressed in transfected cells; host or cells: HEK293
T2 sequence (P78348 1-528): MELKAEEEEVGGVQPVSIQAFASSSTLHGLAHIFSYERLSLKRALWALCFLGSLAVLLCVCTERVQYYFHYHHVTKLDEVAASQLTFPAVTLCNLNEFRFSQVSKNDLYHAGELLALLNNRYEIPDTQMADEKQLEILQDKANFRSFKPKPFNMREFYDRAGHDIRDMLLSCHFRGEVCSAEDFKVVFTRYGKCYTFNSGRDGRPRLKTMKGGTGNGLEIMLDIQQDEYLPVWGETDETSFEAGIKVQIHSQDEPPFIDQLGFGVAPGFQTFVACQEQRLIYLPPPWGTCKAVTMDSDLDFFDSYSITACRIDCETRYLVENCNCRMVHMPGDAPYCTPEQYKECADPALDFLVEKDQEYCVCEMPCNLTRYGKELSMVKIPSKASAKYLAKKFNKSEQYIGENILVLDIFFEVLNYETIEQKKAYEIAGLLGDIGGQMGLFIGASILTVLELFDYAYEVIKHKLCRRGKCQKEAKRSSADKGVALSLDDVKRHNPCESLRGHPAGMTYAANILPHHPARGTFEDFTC
The test can be described thus: In vitro assay for ASIC activity, whole-cell patch clamp, hASIC1 cell line. In kind it is cell-based. On the procedure: as §1, with “recording. […]” for “recording.”
Electrophysiological recording: Patch clamp recording pipettes were pulled from borosilicate glass and typically had 2-4 MOhm resistances. Whole cell currents were recorded with a patch clamp amplifier (Multiclamp 700B, Axon Instruments Inc). […] After a stable ASIC current was determined, inhibition of acid evoked current was determined by multiple applications of increasing concentrations (3-fold dilution) of compound. Inhibition of current was expressed as percent inhibition vs. baseline current. […] IC50s were determined using the Hill Equation.

For orientation: inhibition means the change of the read-out against control, counted positive when it falls. For the compound `NCc1ccc2[nH]c(-c3ccccc3)c(CN)c2c1` [compound 28, (2-Phenyl-1H-indole-3,5-diyl)dimethanamine], at human ASIC3, the inhibition at 10 µM is over 20%.
Regarding `N=C(N)c1ccc2[nH]c(-c3cc(Cl)cc(Br)c3)cc2c1` [EXAMPLE 3], the “block of inward current evoked by pH5.5 in the hASIC3 cell line” value at human ASIC3 is listed as “blocked the proton-evoked current”.
Turning to “Psalmotoxin-1 (EDCIPKWKGCVNRHGDCCEGLECWKRRRSFEVCVPKTPKT; Pi-theraphotoxin-Pc1a; UniProt P60514 1-40, looked up)”, in the test with ASIC, the “inhibition of ASIC current” value is given as “inhibit ASIC current at nM concentrations”.
Consider `CC(C)C1c2cc(C3CC3c3ccc4cc(C(=N)N)ccc4c3)ccc2CCN1C` (stereo not shown) [A-317567], for which the “increase in potency vs. amiloride” value with ASIC (in vivo and in vitro assays) is on record as over 10 fold.
Take `N=C(N)c1ccc2[nH]c(-c3cc(Cl)cc(Cl)c3)cc2c1` [EXAMPLE 1, 2-(3,5-Dichlorophenyl)-1H-indole-5-carboximidamide]: at human ASIC3 (HEK cells, human ASIC3), the “inhibition of proton-evoked current in HEK cells expressing human ASIC3 (FIG. 2)” value is recorded as “inhibits proton-evoked current”. Besides, on human ASIC3, the inhibition at 10 µM is over 20%, the “inhibition of human ASIC3 current with increasing concentrations (FIG. 1)” value is on record as “dose dependent inhibition” and the “inhibition of inward current evoked by pH5.5 in the hASIC3 cell line” value is “inhibits the majority of the proton-evoked current”. Moreover, the “inhibition of proton-evoked current in HEK cells expressing human ASIC1 (FIG. 2)” value against human ASIC1 (HEK cells, human ASIC1) is recorded as “inhibits proton-evoked current”. In addition, at human ASIC1 (pre-application of 300 nM, pH6.5), the “inhibition of inward current evoked by pH6.5 in the hASIC1 cell line” value was “inhibits a large fraction of this current”.
As for `N=C(N)c1ccc2[nH]c(-c3cccc(CO)c3)cc2c1` [EXAMPLE 2], the “block of inward current evoked by pH5.5 in the hASIC3 cell line” value on human ASIC3 is on record as “did not block the proton-evoked current”.
Consider `N=C(Nc1ccccc1)c1ccc2[nH]c(-c3cc(Cl)cc(Cl)c3)cc2c1` [compound 21, 2-(3,5-dichlorophenyl)-N-phenyl-1H-indole-5-carboximidamide], for which the inhibition at 10 µM at human ASIC3 is over 20%.
For the compound `N=C(N)c1ccc2[nH]c(-c3cc(Br)cc(Br)c3)cc2c1` [EXAMPLE 4], at human ASIC3, the “inhibition of human ASIC3 current with increasing concentrations (FIG. 1)” value is on record as “dose dependent inhibition” and the “inhibition of inward current evoked by pH5.5 in the hASIC3 cell line” value is reported as “inhibited the proton-evoked current”.
APETx2: the “inhibition of ASIC current” value in the test with ASIC is recorded as “inhibit ASIC current at nM concentrations”.
On to `NCc1ccc2[nH]c(-c3cc(Cl)nc(Cl)c3)cc2c1` [compound 50, 1-[2-(2,6-Dichloropyridin-4-yl)-1H-indol-5-yl]methanamine], for which the inhibition at 10 µM at human ASIC3 is over 20%.
